Biological target: T1, BRM (Homo sapiens, UniProt P51531)
T1 construct: Western Blot Screen of BRM Degradation in SW1573 Cells; endogenous in cells; host or cells: SW1573 cells
Assay: BRM degradation (Dmax and DC50) in SW1573 cells, Western blot screen / In-Cell Western screen
Assay type: cell-based
Conditions: overnight (18-20 hours) treatment; for Dmax: read-out: Dmax (%)** (% degraded)
Method in brief: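 SW1573 cells were treated with compound for 18–20 h (final 0.1% DMSO). BRM was quantified either by Western blot of RIPA lysates or by fixed-cell In-Cell Western (LI-COR, 800/680 nm), each normalised to alpha-tubulin, giving Dmax and DC50.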

T1 sequence (P51531 whole entry): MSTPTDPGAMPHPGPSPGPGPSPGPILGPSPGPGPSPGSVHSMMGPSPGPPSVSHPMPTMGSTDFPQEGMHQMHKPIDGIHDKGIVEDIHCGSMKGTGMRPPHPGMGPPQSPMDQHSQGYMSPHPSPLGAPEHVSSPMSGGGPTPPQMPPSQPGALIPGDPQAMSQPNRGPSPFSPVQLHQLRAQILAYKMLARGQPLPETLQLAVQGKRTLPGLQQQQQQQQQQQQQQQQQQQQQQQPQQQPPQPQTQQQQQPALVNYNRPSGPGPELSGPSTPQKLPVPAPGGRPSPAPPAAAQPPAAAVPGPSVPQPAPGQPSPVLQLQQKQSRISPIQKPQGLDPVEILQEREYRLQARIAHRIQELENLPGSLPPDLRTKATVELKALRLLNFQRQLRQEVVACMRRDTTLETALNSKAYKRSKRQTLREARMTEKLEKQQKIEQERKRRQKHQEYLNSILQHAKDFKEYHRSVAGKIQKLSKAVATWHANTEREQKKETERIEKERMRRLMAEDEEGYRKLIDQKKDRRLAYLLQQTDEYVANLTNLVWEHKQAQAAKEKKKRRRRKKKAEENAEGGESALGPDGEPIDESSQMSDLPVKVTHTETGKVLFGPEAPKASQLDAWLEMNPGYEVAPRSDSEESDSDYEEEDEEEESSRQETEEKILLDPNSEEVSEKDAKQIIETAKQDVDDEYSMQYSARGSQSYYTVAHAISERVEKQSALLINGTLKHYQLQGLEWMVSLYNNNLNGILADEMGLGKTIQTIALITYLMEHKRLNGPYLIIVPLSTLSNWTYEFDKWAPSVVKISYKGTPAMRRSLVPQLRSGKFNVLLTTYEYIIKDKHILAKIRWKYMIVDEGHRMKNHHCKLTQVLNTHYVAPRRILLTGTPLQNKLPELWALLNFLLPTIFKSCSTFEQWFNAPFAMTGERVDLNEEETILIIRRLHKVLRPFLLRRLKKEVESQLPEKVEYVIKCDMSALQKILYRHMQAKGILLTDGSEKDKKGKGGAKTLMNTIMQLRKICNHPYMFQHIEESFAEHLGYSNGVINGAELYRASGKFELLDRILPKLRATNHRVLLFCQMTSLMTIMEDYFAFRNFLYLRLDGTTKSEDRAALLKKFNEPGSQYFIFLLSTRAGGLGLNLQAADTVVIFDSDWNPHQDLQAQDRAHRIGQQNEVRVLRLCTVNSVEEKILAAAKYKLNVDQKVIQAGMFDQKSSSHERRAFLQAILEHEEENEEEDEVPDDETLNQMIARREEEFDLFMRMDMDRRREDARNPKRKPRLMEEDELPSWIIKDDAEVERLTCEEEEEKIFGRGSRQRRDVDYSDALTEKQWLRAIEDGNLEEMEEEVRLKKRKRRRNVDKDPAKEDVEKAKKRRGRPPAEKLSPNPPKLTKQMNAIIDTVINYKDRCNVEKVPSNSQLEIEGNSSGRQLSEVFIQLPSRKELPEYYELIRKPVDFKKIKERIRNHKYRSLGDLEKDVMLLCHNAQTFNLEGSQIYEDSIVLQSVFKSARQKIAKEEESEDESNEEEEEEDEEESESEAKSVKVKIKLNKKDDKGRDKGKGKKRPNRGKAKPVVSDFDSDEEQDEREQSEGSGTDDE

| SMILES | DC50 | Dmax |
| --- | --- | --- |
| CC(C)[C@@H](C(=O)N1C[C@H](O)C[C@H]1C(=O)N[C@@H](C)c1ccc(C#N)cc1)c1cc(N2CCC(CN3CCC(O[C@H]4C[C@H](N5CCC(C(C)n6cc(C#Cc7cc(-c8ccccc8O)nnc7N)cn6)CC5)C4)CC3)CC2)no1 (stereo partly drawn) [Compound 78, (2S,4R)-N-[(1S)-1-(4-cyanophenyl)ethyl]-4-hydroxy-1-[(2R)-3-methyl-2-{3-[4-({4-[(1r,3r)-3-{4-[1-(4-{2-[3-amino-6-(2-hydroxyphenyl)pyridazin-4-yl]ethynyl}-1H-pyrazol-1-yl)ethyl]piperidin-1-yl}cyclobutoxy]piperidin-1-yl}methyl)piperidin-1-yl]-1,2-oxazol-5-yl}butanoyl]pyrrolidine-2-carboxamide] | 2.5 to 10 nM | > 75% |
| Cc1ncsc1-c1ccc([C@H](C)NC(=O)[C@@H]2C[C@@H](O)CN2C(=O)[C@H](c2cc(N3CCC(O[C@H]4CC[C@@H](Oc5cc(N6C7CCC6CN(c6cc(-c8ccccc8O)nnc6N)C7)ccn5)CC4)CC3)no2)C(C)C)cc1 [Compound 79, (2S,4R)-4-hydroxy-N-[(1S)-1-[4-(4-methyl-1,3-thiazol-5-yl)phenyl]ethyl]-1-[(2S)-3-methyl-2-[3-(4-{[(1s,4s)-4-[(4-{3-[3-amino-6-(2-hydroxyphenyl)pyridazin-4-yl]-3,8-diazabicyclo[3.2.1]octan-8-yl}pyridin-2-yl)oxy]cyclohexyl]oxy}piperidin-1-yl)-1,2-oxazol-5-yl]butanoyl]pyrrolidine-2-carboxamide] | ≥ 30 nM |  |
| Cc1ncsc1-c1ccc([C@H](C)NC(=O)[C@@H]2C[C@@H](O)CN2C(=O)[C@@H](c2cc(N3CCC(O[C@H]4CC[C@@H](Oc5cc(N6C7CCC6CN(c6cc(-c8ccccc8O)nnc6N)C7)ccn5)CC4)CC3)no2)C(C)C)cc1 [Compound 80, (2S,4R)-4-hydroxy-N-[(1S)-1-[4-(4-methyl-1,3-thiazol-5-yl)phenyl]ethyl]-1-[(2R)-3-methyl-2-[3-(4-{[(1s,4s)-4-[(4-{3-[3-amino-6-(2-hydroxyphenyl)pyridazin-4-yl]-3,8-diazabicyclo[3.2.1]octan-8-yl}pyridin-2-yl)oxy]cyclohexyl]oxy}piperidin-1-yl)-1,2-oxazol-5-yl]butanoyl]pyrrolidine-2-carboxamide] | < 2.5 nM | > 75% |
| Cc1ncsc1-c1ccc([C@H](C)NC(=O)[C@@H]2C[C@@H](O)CN2C(=O)[C@@H](c2cc(OCCN3CCC(O[C@H]4C[C@H](OC(=O)N5CCN(c6cc(-c7ccccc7O)nnc6N)CC5)C4)CC3)no2)C(C)C)cc1 [Compound 81, (1r,3r)-3-({1-[2-({5-[(2R)-1-[(2S,4R)-4-hydroxy-2-{[(1S)-1-[4-(4-methyl-1,3-thiazol-5-yl)phenyl]ethyl]carbamoyl}pyrrolidin-1-yl]-3-methyl-1-oxobutan-2-yl]-1,2-oxazol-3-yl}oxy)ethyl]piperidin-4-yl}oxy)cyclobutyl 4-[3-amino-6-(2-hydroxyphenyl)pyridazin-4-yl]piperazine-1-carboxylate] | < 2.5 nM | > 75% |
| CC(C)[C@H](C(=O)N1C[C@H](O)C[C@H]1C(=O)N[C@@H](C)c1ccc(-c2scnc2C#CCOCCOCCOCCOCCOc2cc(N3C4CCC3CN(c3cc(-c5ccccc5O)nnc3N)C4)ccn2)cc1)N1Cc2ccccc2C1=O [Compound 82, (2S,4R)-N-[(1S)-1-[4-(4-{1-[(4-{3-[3-amino-6-(2-hydroxyphenyl)pyridazin-4-yl]-3,8-diazabicyclo[3.2.1]octan-8-yl}pyridin-2-yl)oxy]-3,6,9,12-tetraoxapentadec-14-yn-15-yl}-1,3-thiazol-5-yl)phenyl]ethyl]-4-hydroxy-1-[(2R)-3-methyl-2-(1-oxo-2,3-dihydro-1H-isoindol-2-yl)butanoyl]pyrrolidine-2-carboxamide] | ≥ 30 nM |  |
| CC(C)[C@@H](C(=O)N1C[C@H](O)C[C@H]1C(=O)N[C@@H](C)c1ccc(-c2scnc2C#CCOCCOCCOCCOCCOc2cc(N3C4CCC3CN(c3cc(-c5ccccc5O)nnc3N)C4)ccn2)cc1)N1Cc2ccccc2C1=O [Compound 83, (2S,4R)-N-[(1S)-1-[4-(4-{1-[(4-{3-[3-amino-6-(2-hydroxyphenyl)pyridazin-4-yl]-3,8-diazabicyclo[3.2.1]octan-8-yl}pyridin-2-yl)oxy]-3,6,9,12-tetraoxapentadec-14-yn-15-yl}-1,3-thiazol-5-yl)phenyl]ethyl]-4-hydroxy-1-[(2S)-3-methyl-2-(1-oxo-2,3-dihydro-1H-isoindol-2-yl)butanoyl]pyrrolidine-2-carboxamide] | ≥ 30 nM |  |
| CC(C)[C@@H](C(=O)N1C[C@H](O)C[C@H]1C(=O)N[C@@H](C)c1ccc(-c2ccnn2C)cc1)c1cc(N2CCC(CN3CCC(O[C@H]4C[C@H](N5CCC(C(C)n6ncc(C#Cc7cc(-c8ccccc8O)nnc7N)c6F)CC5)C4)CC3)CC2)no1 (stereo partly drawn) [Compound 84, (2S,4R)-4-hydroxy-N-[(1S)-1-[4-(1-methyl-1H-pyrazol-5-yl)phenyl]ethyl]-1-[(2R)-3-methyl-2-{3-[4-({4-[(1r,3r)-3-{4-[1-(4-{2-[3-amino-6-(2-hydroxyphenyl)pyridazin-4-yl]ethynyl}-5-fluoro-1H-pyrazol-1-yl)ethyl]piperidin-1-yl}cyclobutoxy]piperidin-1-yl}methyl)piperidin-1-yl]-1,2-oxazol-5-yl}butanoyl]pyrrolidine-2-carboxamide] | < 2.5 nM | > 75% |
| Cc1ncsc1-c1ccc([C@H](C)NC(=O)[C@@H]2C[C@@H](O)CN2C(=O)[C@@H](c2cc(N3CCC(CN4CCC(O[C@H]5C[C@H](N6CCC(C(C)c7cn(-c8cc(-c9ccccc9O)nnc8N)cn7)CC6)C5)CC4)CC3)no2)C(C)C)cc1 (stereo partly drawn) [Compound 85, (2S,4R)-4-hydroxy-N-[(1S)-1-[4-(4-methyl-1,3-thiazol-5-yl)phenyl]ethyl]-1-[(2R)-3-methyl-2-{3-[4-({4-[(1r,3r)-3-[4-(1-{1-[3-amino-6-(2-hydroxyphenyl)pyridazin-4-yl]-1H-imidazol-4-yl}ethyl)piperidin-1-yl]cyclobutoxy]piperidin-1-yl}methyl)piperidin-1-yl]-1,2-oxazol-5-yl}butanoyl]pyrrolidine-2-carboxamide] | ≥ 30 nM |  |
| CC(C)[C@H](C(=O)N1C[C@H](O)C[C@H]1C(=O)N[C@@H](C)c1ccc(-c2scnc2C#CCOCCOCCOc2cc(N3C4CCC3CN(c3cc(-c5ccccc5O)nnc3N)C4)ccn2)cc1)N1Cc2ccccc2C1=O [Compound 86] | 2.5 to 10 nM | > 75% |
| Cc1ncsc1-c1ccc([C@H](C)NC(=O)[C@@H]2C[C@@H](O)CN2C(=O)[C@@H](c2cc(N3CCC(CN4CCC5(CC4)CC(N4CCO[C@H](C(C)n6cc(-c7cc(-c8ccccc8O)nnc7N)cn6)C4)C5)CC3)no2)C(C)C)cc1 (stereo partly drawn) [Compound 88, (2S,4R)-1-[(2R)-2-{3-[4-({2-[(2S)-2-(1-(4-[3-amino-6-(2-hydroxyphenyl)pyridazin-4-yl]-1H-pyrazol-1-yl}ethyl)morpholin-4-yl]-7-azaspiro[3.5]nonan-7-yl}methyl)piperidin-1-yl]-1,2-oxazol-5-yl}-3-methylbutanoyl]-4-hydroxy-N-[(1S)-1-[4-(4-methyl-1,3-thiazol-5-yl)phenyl]ethyl]pyrrolidine-2-carboxamide] | < 2.5 nM | > 75% |
| Cc1ncsc1-c1ccc([C@H](C)NC(=O)[C@@H]2C[C@@H](O)CN2C(=O)[C@@H](c2cc(N3CCC(CN4CCC5(CC4)CC(N4CCO[C@@H](C(C)n6cc(-c7cc(-c8ccccc8O)nnc7N)cn6)C4)C5)CC3)no2)C(C)C)cc1 (stereo partly drawn) [Compound 89, (2S,4R)-1-[(2R)-2-{3-[4-({2-[(2R)-2-(1-{4-[3-amino-6-(2-hydroxyphenyl)pyridazin-4-yl]-1H-pyrazol-1-yl}ethyl)morpholin-4-yl]-7-azaspiro[3.5]nonan-7-yl}methyl)piperidin-1-yl]-1,2-oxazol-5-yl}-3-methylbutanoyl]-4-hydroxy-N-[(1S)-1-[4-(4-methyl-1,3-thiazol-5-yl)phenyl]ethyl]pyrrolidine-2-carboxamide] | < 2.5 nM | > 75% |
| Cc1nccn1-c1ccc([C@H](C)NC(=O)[C@@H]2C[C@@H](O)CN2C(=O)[C@H](c2cc(N3CCC(CN4CCC(O[C@H]5C[C@H](N6CCC(C(C)n7cc(C#Cc8cc(-c9ccccc9O)nnc8N)cn7)CC6)C5)CC4)CC3)no2)C(C)C)cc1 (stereo partly drawn) [Compound 90, (2S,4R)-4-hydroxy-N-[(1S)-1-[4-(2-methyl-1H-imidazol-1-yl)phenyl]ethyl]-1-[(2S)-3-methyl-2-{3-[4-({4-[(1r,3r)-3-{4-[1-(4-{2-[3-amino-6-(2-hydroxyphenyl)pyridazin-4-yl]ethynyl}-1H-pyrazol-1-yl)ethyl]piperidin-1-yl}cyclobutoxy]piperidin-1-yl}methyl)piperidin-1-yl]-1,2-oxazol-5-yl}butanoyl]pyrrolidine-2-carboxamide] | ≥ 30 nM |  |
| Cc1nccn1-c1ccc([C@H](C)NC(=O)[C@@H]2C[C@@H](O)CN2C(=O)[C@@H](c2cc(N3CCC(CN4CCC(O[C@H]5C[C@H](N6CCC(C(C)n7cc(C#Cc8cc(-c9ccccc9O)nnc8N)cn7)CC6)C5)CC4)CC3)no2)C(C)C)cc1 (stereo partly drawn) [Compound 91, (2S,4R)-4-hydroxy-N-[(1S)-1-[4-(2-methyl-1H-imidazol-1-yl)phenyl]ethyl]-1-[(2R)-3-methyl-2-{3-[4-({4-[(1r,3r)-3-{4-[1-(4-{2-[3-amino-6-(2-hydroxyphenyl)pyridazin-4-yl]ethynyl}-1H-pyrazol-1-yl)ethyl]piperidin-1-yl}cyclobutoxy]piperidin-1-yl}methyl)piperidin-1-yl]-1,2-oxazol-5-yl}butanoyl]pyrrolidine-2-carboxamide] | < 2.5 nM | > 75% |

Reference: patent US20250059198A1, “BRM DEGRADING COMPOUNDS AND ASSOCIATED METHODS OF USE” (Arvinas Operations, Inc., priority 2021, published 2025)
